Laboratory results as given in ChEMBL document CHEMBL1201862, “PubChem BioAssay data set” (2004).
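These data come from cells grown in 96-well plates and exposed to compound for 48 hours at five concentrations. At the GI50, growth is halved.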 Activity calls are given as the source filed them. Cut-off read from the data, not from the text of the source: active = GI50 up to about 1.1 µM and inactive = higher.

Tests used:
Assay in all cases: inhibition of tumour cell growth, NCI panel, 48 h
A549 = system: A549
HCC 2998 = system: HCC 2998
HL-60 = system: HL-60
K562 = system: K562
LOX IMVI = system: LOX IMVI
NCI-H226 = system: NCI-H226
NCI-H522 = system: NCI-H522
OVCAR-3 = system: OVCAR-3
OVCAR-8 = system: OVCAR-8
SF-268 = system: SF-268
SF-295 = system: SF-295
SF-539 = system: SF-539
SK-OV-3 = system: SK-OV-3
SNB-75 = system: SNB-75
SR = system: SR
TK-10 = system: TK-10
UACC-257 = system: UACC-257
UACC-62 = system: UACC-62
UO-31 = system: UO-31
RXF 393 = system: RXF 393

Measured: GI50

C=C1CC(Cn2cc(C)c(=O)[nH]c2=O)(c2ccc(-c3ccccc3)cc2)OC1=O (stereo not drawn)
active: HL-60 0.415 µM | K562 0.296 µM | LOX IMVI 0.889 µM | NCI-H522 0.841 µM | SR 0.82 µM
inactive: A549 8.49 µM | HCC 2998 1.86 µM | NCI-H226 14.3 µM | OVCAR-3 1.21 µM | OVCAR-8 1.95 µM | SF-268 2.26 µM | SF-295 8.85 µM | SF-539 2.07 µM | SK-OV-3 6.53 µM | SNB-75 7.87 µM | TK-10 1.4 µM | UACC-257 1.44 µM | UACC-62 1.76 µM | UO-31 5.32 µM

O=C(OCc1ccccc1)C(Cc1ccc(OCc2ccccc2)cn1)NC(=O)C(F)(F)F (stereo not drawn)
inactive: A549 62.8 µM | HCC 2998 > 100 µM | HL-60 56.2 µM | K562 42.8 µM | LOX IMVI 92.3 µM | NCI-H226 > 100 µM | NCI-H522 79.8 µM | OVCAR-3 71.3 µM | OVCAR-8 > 100 µM | RXF 393 > 100 µM | SF-268 98.2 µM | SF-295 > 100 µM | SF-539 > 100 µM | SNB-75 3.01 µM | SR 86.9 µM | TK-10 > 100 µM | UACC-257 > 100 µM | UO-31 65.5 µM

c1csc(-c2ccsc2-c2ccsc2)c1
active: NCI-H226 0.0264 µM
inactive: A549 43.1 µM | HCC 2998 28.3 µM | HL-60 33.1 µM | K562 73.8 µM | LOX IMVI > 100 µM | OVCAR-3 16.8 µM | OVCAR-8 91.2 µM | RXF 393 25.6 µM | SF-268 92.5 µM | SF-295 57.4 µM | SF-539 > 100 µM | SK-OV-3 > 100 µM | SNB-75 > 100 µM | SR 33.1 µM | TK-10 > 100 µM | UACC-257 > 100 µM | UACC-62 > 100 µM | UO-31 80 µM

O=C1CC(CC(O)[C@@H]2CCCC[C@@H]2O)CC(=O)N1c1ccccc1 (stereo partly drawn)
inactive: A549 > 100 µM | HCC 2998 > 100 µM | HL-60 > 100 µM | K562 > 100 µM | LOX IMVI > 100 µM | NCI-H226 > 100 µM | NCI-H522 > 100 µM | OVCAR-3 > 100 µM | OVCAR-8 > 100 µM | RXF 393 > 100 µM | SF-268 > 100 µM | SF-295 > 100 µM | SF-539 > 100 µM | SNB-75 > 100 µM | SR > 100 µM | TK-10 > 100 µM | UACC-257 > 100 µM | UACC-62 > 100 µM | UO-31 > 100 µM

Cn1c(=O)c2c(nc3n2C(CCl)CO3)n(C)c1=O (stereo not drawn)
inactive: HCC 2998 > 100 µM | HL-60 > 100 µM | K562 > 100 µM | NCI-H226 > 100 µM | NCI-H522 > 100 µM | OVCAR-3 > 100 µM | OVCAR-8 > 100 µM | SF-268 > 100 µM | SF-295 > 100 µM | SF-539 > 100 µM | SK-OV-3 > 100 µM | SNB-75 > 100 µM | SR > 100 µM | TK-10 > 100 µM | UACC-257 > 100 µM | UACC-62 > 100 µM | UO-31 > 100 µM

CC(=O)NC1C(OCc2ccccc2)OC(CO)C(O)C1OC(C)C(=O)N[C@@H](C)C(=O)N[C@H](CCC(=O)OCCNc1c2ccccc2nc2cccc([N+](=O)[O-])c12)C(N)=O (stereo partly drawn)
active: A549 0.00146 µM | HCC 2998 0.000681 µM | HL-60 0.00647 µM | K562 0.00094 µM | NCI-H226 0.00548 µM | NCI-H522 0.00174 µM | OVCAR-3 0.00142 µM | OVCAR-8 0.00235 µM | RXF 393 0.0012 µM | SF-268 0.00394 µM | SF-295 0.00427 µM | SF-539 0.00313 µM | SK-OV-3 0.00711 µM | SNB-75 0.0114 µM | SR 3.64e-05 µM | TK-10 0.00344 µM | UACC-257 0.00339 µM | UACC-62 0.000451 µM | UO-31 0.00292 µM

CCC1=C(C[C@H]2NCCc3cc(OC)c(OC)cc32)C[C@H]2c3cc(OC)c(OC)cc3CCN2C1
active: A549 0.0317 µM | HCC 2998 0.0293 µM | HL-60 0.0247 µM | NCI-H522 0.0257 µM | OVCAR-3 0.0387 µM | OVCAR-8 0.0272 µM | RXF 393 0.0254 µM | SF-268 0.0356 µM | SF-295 0.0331 µM | SF-539 0.0326 µM | SK-OV-3 0.0637 µM | SNB-75 0.0332 µM | SR 0.0101 µM | UACC-257 0.0473 µM | UACC-62 0.0336 µM | UO-31 0.316 µM

Cn1c2ccccc2n2c(=O)c(-c3ccc(O)cc3)nnc12
inactive: A549 > 100 µM | HCC 2998 > 100 µM | HL-60 > 100 µM | LOX IMVI 69.8 µM | NCI-H226 46.6 µM | NCI-H522 96.8 µM | OVCAR-8 > 100 µM | SF-268 64.7 µM | SF-295 18.3 µM | SF-539 35 µM | SNB-75 25.8 µM | SR > 100 µM | TK-10 > 100 µM | UACC-257 > 100 µM | UO-31 > 100 µM

CCN1C(=O)N2C(OC)c3ccccc3C(Br)C2(OC)C1=O (stereo not drawn)
inactive: HCC 2998 > 100 µM | HL-60 > 100 µM | K562 > 100 µM | LOX IMVI > 100 µM | NCI-H226 > 100 µM | NCI-H522 > 100 µM | OVCAR-3 > 100 µM | OVCAR-8 > 100 µM | SF-295 > 100 µM | SK-OV-3 > 100 µM | SNB-75 48.3 µM | SR > 100 µM | TK-10 > 100 µM | UACC-62 > 100 µM | UO-31 > 100 µM

CN(CCNC(=O)c1c[nH]c2c1Cc1ccccc1-2)CCNC(=O)c1c[nH]c2c1Cc1ccccc1-2
inactive: A549 43.2 µM | HCC 2998 52.6 µM | HL-60 31 µM | K562 30.3 µM | LOX IMVI 29.9 µM | NCI-H226 24.6 µM | NCI-H522 19.6 µM | OVCAR-3 21 µM | OVCAR-8 32.1 µM | RXF 393 30.5 µM | SF-268 32 µM | SF-295 26.9 µM | SF-539 19.5 µM | SR 29.6 µM | TK-10 45.9 µM | UACC-257 43.8 µM | UACC-62 18 µM | UO-31 28.6 µM

Cc1nn(C(=O)Cc2ccccc2)c2c1C(c1ccc3ccccc3c1O)SC(=N)N2 (stereo not drawn)
inactive: A549 > 100 µM | HCC 2998 > 100 µM | HL-60 39.6 µM | K562 > 100 µM | LOX IMVI > 100 µM | NCI-H226 > 100 µM | NCI-H522 67.8 µM | OVCAR-8 > 100 µM | SF-268 > 100 µM | SF-295 > 100 µM | SF-539 > 100 µM | SK-OV-3 > 100 µM | SNB-75 52.1 µM | SR 48.9 µM | TK-10 > 100 µM | UACC-257 > 100 µM | UACC-62 > 100 µM | UO-31 80 µM

O=P(O)(Cc1ccccc1)c1ccccc1-c1ccccc1
inactive: A549 56 µM | HCC 2998 > 100 µM | HL-60 > 100 µM | K562 > 100 µM | LOX IMVI > 100 µM | NCI-H226 > 100 µM | NCI-H522 > 100 µM | OVCAR-8 > 100 µM | RXF 393 54.6 µM | SF-268 > 100 µM | SF-295 > 100 µM | SF-539 > 100 µM | SK-OV-3 > 100 µM | SNB-75 > 100 µM | SR > 100 µM | TK-10 > 100 µM | UACC-257 > 100 µM | UACC-62 > 100 µM | UO-31 > 100 µM

[O-]c1c2c(nn1-c1ccc(F)cc1)c1ccccc1c[n+]2Cc1ccccc1
inactive: A549 12.8 µM | HCC 2998 11.7 µM | NCI-H226 16.6 µM | NCI-H522 4.12 µM | OVCAR-3 7.69 µM | OVCAR-8 12.8 µM | RXF 393 15.1 µM | SF-268 18.9 µM | SF-295 14.6 µM | SF-539 3.26 µM | SK-OV-3 14.6 µM | SNB-75 23.3 µM | SR 1.55 µM | TK-10 24.6 µM | UACC-257 11.5 µM | UACC-62 2 µM | UO-31 10.2 µM
active: HL-60 0.327 µM | K562 0.687 µM

O=[N+]([O-])c1ccc(-c2ccc(-c3csc(Nc4ccccn4)n3)o2)cc1
inactive: HCC 2998 > 100 µM | HL-60 > 100 µM | K562 66.5 µM | LOX IMVI 63.4 µM | NCI-H522 > 100 µM | OVCAR-3 > 100 µM | OVCAR-8 64.7 µM | SF-268 19.7 µM | SF-295 46.3 µM | SK-OV-3 14.3 µM | SNB-75 > 100 µM | SR > 100 µM | TK-10 26.9 µM | UACC-257 > 100 µM | UACC-62 29.9 µM | UO-31 > 100 µM

NC(CCCCNC(=O)C(Cc1ccccc1)NC(=O)OCc1ccccc1)C(=O)NC(CCCCNC(=O)C(Cc1ccccc1)NC(=O)OCc1ccccc1)C(=O)NC(CCCCNC(=O)C(Cc1ccccc1)NC(=O)OCc1ccccc1)C(=O)NC(CCCCNC(=O)C(Cc1ccccc1)NC(=O)OCc1ccccc1)C(=O)NC(CCCCNC(=O)C(Cc1ccccc1)NC(=O)OCc1ccccc1)C(=O)NC(CCCCNC(=O)C(Cc1ccccc1)NC(=O)OCc1ccccc1)C(=O)O (stereo not drawn)
inactive: A549 > 100 µM | HCC 2998 > 100 µM | HL-60 > 100 µM | K562 > 100 µM | LOX IMVI > 100 µM | NCI-H226 > 100 µM | NCI-H522 > 100 µM | OVCAR-3 > 100 µM | OVCAR-8 > 100 µM | SF-268 > 100 µM | SNB-75 > 100 µM | SR > 100 µM | TK-10 > 100 µM | UACC-257 > 100 µM | UACC-62 > 100 µM | UO-31 > 100 µM
